The test relates to ER-alpha MCF7. Description: ER-alpha MCF7 HCS EC50; stated as measured by in vitro cell proliferation assays of Examples 902 and 903. In kind it is cell-based. The settings on record: Homo sapiens, MCF7, MCF7 cells. The text has this:
The CellTiter-Glo® Luminescent Cell Viability Assay is a homogeneous method to determine the number of viable cells in culture based on quantitation of the ATP present, which signals the presence of metabolically active cells. The CellTiter-Glo® Assay is designed for use with multiwell plate formats, making it ideal for automated high-throughput screening (HTS), cell proliferation and cytotoxicity assays. The homogeneous assay procedure involves adding a single reagent (CellTiter-Glo® Reagent) directly to cells cultured in serum-supplemented medium. Cell washing, removal of medium or multiple pipetting steps are not required. The Cell Titer-Glo® Luminescent Cell Viability Assay, including reagents and protocol are commercially available (Promega Corp., Madison, WI, Technical Bulletin TB288).
The assay assesses the ability of compounds to enter cells and inhibit cell proliferation. The assay principle is based on the determination of the number of viable cells present by quantitating the ATP present in a homogenous assay where addition of the Cell Titer-Glo® reagent results in cell lysis and generation of a luminescent signal through the luciferase reaction. The luminescent signal is proportional to the amount of ATP present.
Cell Culture Medium: RPMI or DMEM high glucose, 10% Fetal Bovine Serum, 2 mM L-Glutamine, P/S. Incubate O/N (overnight) at 37° C., 5% CO2.
Day 2—Add Drug to Cells, Compound Dilution, DMSO Plates (serial 1:2 for 9 points). Add 20 μl of compound at 10 mM in the 2nd column of 96 well plate. […] Add 147 μl of Media into all wells. Transfer 3 μl of DMSO+ compound from each well in the DMSO Plate to each corresponding well on Media Plate using Rapidplate® (Caliper, a Perkin-Elmer Co.). For 2 drug combination studies, transfer one drug 1.5 μl of DMSO+ compound from each well in the DMSO Plate to each corresponding well on Media Plate using Rapidplate. Then, transfer another drug 1.5 μl to the medium plate.
Drug Addition to Cells, Cell Plate (1:10 dilution): Add 6 μl of media+ compound directly to cells (54 μl of media on the cells already). Incubate 3 days at 37° C., 5% CO2 in an incubator that will not be opened often.
Day 5—Develop Plates, Thaw Cell Titer Glo Buffer at room temperature: Remove Cell Plates from 37° C. and equilibrate to room temperature for about 30 minutes. Add Cell Titer-Glo® Buffer to Cell Titer-Glo® Substrate (bottle to bottle). Add 30 μl Cell Titer-Glo® Reagent (Promega cat. #G7572) to each well of cells. Place on plate shaker for about 30 minutes. Read luminescence on Analyst HT Plate Reader (half second per well).
Cell viability assays and combination assays: Cells were seeded at 1000-2000 cells/well in 384-well plates for 16 h. On day two, nine serial 1:2 compound dilutions were made in DMSO in a 96 well plate. The compounds were further diluted into growth media using a Rapidplate® robot (Zymark Corp., Hopkinton, MA). The diluted compounds were then added to quadruplicate wells in 384-well cell plates and incubated at 37° C. and 5% CO2. After 4 days, relative numbers of viable cells were measured by luminescence using Cell Titer-Glo® (Promega) according to the manufacturer's instructions and read on a Wallac Multilabel Reader® (PerkinElmer, Foster City). EC50 values were calculated using Prism® 4.0 software (GraphPad, San Diego).
5 ul of each individual compound concentration and each control compound was transferred to the cell plate. Fulvestrant was added to control wells at a final concentration of 100 nM). DMSO was added to negative control wells (0.2% v/v).

The structures appear in SMILES notation.

Take `C[C@@H]1Cc2c([nH]c3ccccc23)[C@@H](c2c(F)cc(OCCN3CC(CF)C3)cc2F)N1C(=O)C1CC(F)C1` (stereo in doubt) [Example 203, [1-[2,6-difluoro-4-[2-[3-(fluoromethyl)azetidin-1-yl]ethoxy]phenyl]-3-methyl-1,3,4,9-tetrahydropyrido[3,4-b]indol-2-yl]-(3-fluorocyclobutyl)methanone]: the EC50 (as a rule, the concentration needed to bring the measured effect to its halfway point) (Table 2) is 4 nM.

Take `CC(CN1[C@H](c2c(F)cc(OC3CN(CCCF)C3)cc2F)c2[nH]c3ccccc3c2C[C@H]1C)C(=O)O` (stereo in doubt) [Example 350, 3-[1-[2,6-difluoro-4-[1-(3-fluoropropyl)azetidin-3-yl]oxy-phenyl]-3-methyl-1,3,4,9-tetrahydropyrido[3,4-b]indol-2-yl]-2-methyl-propanoic acid]: the EC50 (Table 2) is 14 nM.

For the compound `C[C@@H]1Cc2c([nH]c3ccccc23)[C@@H](c2ccc(OCCN3CC(CF)C3)nc2)N1CC(C)(C)F` [Example 111, (1R,3R)-2-(2-fluoro-2-methylpropyl)-1-(6-(2-(3-(fluoromethyl)azetidin-1-yl)ethoxy)pyridin-3-yl)-3-methyl-2,3,4,9-tetrahydro-1H-pyrido[3,4-b]indole], the EC50 (Table 1) was 0.898 nM.

In the case of `C[C@@H]1Cc2c([nH]c3ccccc23)[C@@H](c2ncc(OCCN3CC(CF)C3)cc2F)N1CC(C)(C)F` [Example 112, (1S,3R)-2-(2-fluoro-2-methylpropyl)-1-(3-fluoro-5-(2-(3-(fluoromethyl)azetidin-1-yl)ethoxy)pyridin-2-yl)-3-methyl-2,3,4,9-tetrahydro-1H-pyrido[3,4-b]indole], for the setting “Table 1”, the EC50 was determined as 0.092 nM.

`C[C@@H]1Cc2c([nH]c3ccccc23)[C@@H](c2c(F)cc(OCCN3CC(CF)C3)cc2F)N1CC1(C)COC1` [Example 114, (1R,3R)-1-(2,6-difluoro-4-(2-(3-(fluoromethyl)azetidin-1-yl)ethoxy)phenyl)-3-methyl-2-((3-methyloxetan-3-yl)methyl)-2,3,4,9-tetrahydro-1H-pyrido[3,4-b]indole]: the concentration giving a half-maximal response (EC50) (Table 1) was 0.715 nM.

In the case of `C[C@@H]1Cc2c([nH]c3ccccc23)[C@@H](c2c(F)cc(OCCN3CC(CF)C3)cc2F)N1CC(C)(C)O` [Example 127, 1-[(1R,3R)-1-[2,6-difluoro-4-[2-[3-(fluoromethyl)azetidin-1-yl]ethoxy]phenyl]-3-methyl-1,3,4,9-tetrahydropyrido[3,4-b]indol-2-yl]-2-methyl-propan-2-ol], the 50% effective concentration (EC50) (Table 2) amounted to 0.641 nM.

In the case of `CC(C)(F)CN1[C@@H](CO)Cc2c([nH]c3ccccc23)[C@@H]1c1c(F)cc(OCCN2CC(CF)C2)cc1F` [Example 131, ((1S,3R)-1-(2,6-difluoro-4-(2-(3-(fluoromethyl)azetidin-1-yl)ethoxy)phenyl)-2-(2-fluoro-2-methylpropyl)-2,3,4,9-tetrahydro-1H-pyrido[3,4-b]indol-3-yl)methanol], the EC50 (Table 2) is 0.146 nM.

Consider `C[C@@H]1Cc2c([nH]c3ccccc23)[C@@H](c2c(F)cc(OC3CNC3)cc2F)N1CC(C)(C)F` [Example 132, (1R,3R)-1-[4-(azetidin-3-yloxy)-2,6-difluoro-phenyl]-2-(2-fluoro-2-methyl-propyl)-3-methyl-1,3,4,9-tetrahydropyrido[3,4-b]indole], for which the EC50 (Table 2) is 0.31 nM.

`C[C@@H]1Cc2c([nH]c3ccccc23)[C@@H](c2ccc(OCCN3CC(CF)C3)cc2F)N1CC(C)(C)F` [Example 133, (1R,3R)-2-(2-fluoro-2-methylpropyl)-1-(2-fluoro-4-(2-(3-(fluoromethyl)azetidin-1-yl)ethoxy)phenyl)-3-methyl-2,3,4,9-tetrahydro-1H-pyrido[3,4-b]indole]: the concentration giving a half-maximal response (EC50) (Table 2) was 0.0562 nM.

Consider `C[C@@H]1Cc2c([nH]c3ccccc23)[C@@H](c2c(F)cc(OCCN3CC(CF)C3)cc2F)N1C1CCC1` [Example 134, (1R,3R)-2-cyclobutyl-1-[2,6-difluoro-4-[2-[3-(fluoromethyl)azetidin-1-yl]ethoxy]phenyl]-3-methyl-1,3,4,9-tetrahydropyrido[3,4-b]indole], for which the EC50 (Table 2) amounted to 0.542 nM.

Consider `CC(C)(F)CN1[C@H](CF)Cc2c([nH]c3ccccc23)[C@H]1c1c(F)cc(OCCN2CC(CF)C2)cc1F` [Example 135, (1R,3S)-1-[2,6-difluoro-4-[2-[3-(fluoromethyl)azetidin-1-yl]ethoxy]phenyl]-3-(fluoromethyl)-2-(2-fluoro-2-methyl-propyl)-1,3,4,9-tetrahydropyrido[3,4-b]indole], for which the concentration for a half-maximal effect (EC50) (Table 2) was found to be 0.0973 nM.

For the compound `C[C@@H]1Cc2c([nH]c3ccccc23)[C@@H](c2c(F)cc(OCCN3CC(CF)C3)cc2F)N1CC1(F)COC1` [Example 136, (1R,3R)-1-[2,6-difluoro-4-[2-[3-(fluoromethyl)azetidin-1-yl]ethoxy]phenyl]-2-[(3-fluorooxetan-3-yl)methyl]-3-methyl-1,3,4,9-tetrahydropyrido[3,4-b]indole], under “Table 2”, the 50% effective concentration (EC50) is 0.114 nM.

Take `C[C@@H]1Cc2c([nH]c3ccccc23)[C@@H](c2c(F)cc(OCCN3CC(CF)C3)cc2F)N1C(=O)C1CCCCC1` [Example 137, cyclohexyl((1R,3R)-1-(2,6-difluoro-4-(2-(3-(fluoromethyl)azetidin-1-yl)ethoxy)phenyl)-3-methyl-3,4-dihydro-1H-pyrido[3,4-b]indol-2(9H)-yl)methanone]: the concentration giving a half-maximal response (EC50) (Table 2) turned out to be 28 nM.

Turning to `C[C@@H]1Cc2c([nH]c3ccccc23)[C@@H](c2c(F)cc(OCCN3CC(CF)C3)cc2F)N1C(=O)C(C)(C)C` [Example 138, 1-[(1R,3R)-1-[2,6-difluoro-4-[2-[3-(fluoromethyl)azetidin-1-yl]ethoxy]phenyl]-3-methyl-1,3,4,9-tetrahydropyrido[3,4-b]indol-2-yl]-2,2-dimethyl-propan-1-one], the concentration for a half-maximal effect (EC50) (Table 2) came to 0.491 nM.

Turning to `C[C@@H]1Cc2c([nH]c3ccccc23)[C@@H](c2c(F)cc(OCCN3CC(CF)C3)cc2F)N1C(=O)C1CC1` [Example 139, cyclopropyl((1R,3R)-1-(2,6-difluoro-4-(2-(3-(fluoromethyl)azetidin-1-yl)ethoxy)phenyl)-3-methyl-3,4-dihydro-1H-pyrido[3,4-b]indol-2(9H)-yl)methanone], under “Table 2”, the EC50 amounted to 2.48 nM.

Turning to `CC1CN(CCOc2cc(F)c([C@@H]3c4[nH]c5ccccc5c4C[C@@H](C)N3CC(C)(C)F)c(F)c2)C1` [Example 140, (1R,3R)-1-[2,6-difluoro-4-[2-(3-methylazetidin-1-yl)ethoxy]phenyl]-2-(2-fluoro-2-methyl-propyl)-3-methyl-1,3,4,9-tetrahydropyrido[3,4-b]indole], the 50% effective concentration (EC50) (Table 2) came out at 0.13 nM.

With `C[C@@H]1CCN(CCOc2cc(F)c([C@@H]3c4[nH]c5ccccc5c4C[C@@H](C)N3CC(C)(C)F)c(F)c2)C1` [Example 141, (1R,3R)-1-(2,6-difluoro-4-(2-((R)-3-methylpyrrolidin-1-yl)ethoxy)phenyl)-2-(2-fluoro-2-methylpropyl)-3-methyl-2,3,4,9-tetrahydro-1H-pyrido[3,4-b]indole], the concentration for a half-maximal effect (EC50) (Table 2) worked out at 0.151 nM.

As for `C[C@@H]1Cc2c([nH]c3ccccc23)[C@@H](c2c(F)cc(OC[C@H](C)N3CCCC3)cc2F)N1CC(C)(C)F` [Example 142, (1R,3R)-1-[2,6-difluoro-4-[(2S)-2-pyrrolidin-1-ylpropoxy]phenyl]-2-(2-fluoro-2-methyl-propyl)-3-methyl-1,3,4,9-tetrahydropyrido[3,4-b]indole], the EC50 (Table 2) was found to be 0.09 nM.

Take `C[C@@H]1Cc2c([nH]c3ccccc23)[C@@H](c2c(F)cc(OCCCN3CC(CF)C3)cc2F)N1CC(C)(C)F` [Example 143, (1R,3R)-1-[2,6-difluoro-4-[3-[3-(fluoromethyl)azetidin-1-yl]propoxy]phenyl]-2-(2-fluoro-2-methyl-propyl)-3-methyl-1,3,4,9-tetrahydropyrido[3,4-b]indole]: the EC50 (Table 2) was 0.078 nM.

The record behind these values is patent US20250114338A1, “TETRAHYDRO-PYRIDO[3,4-b]INDOLE ESTROGEN RECEPTOR MODULATORS AND USES THEREOF” (Genentech, Inc., priority 2014, published 2025).
